# Experimental data reported in patent publication US11135231B2, “Methods and compositions for prevention and treatment of Apicomplexan infections” (Tufts Medical Center, Inc., priority 2016, dated 2021).
# Assays:
# [1] = system: three human tumor cell lines; details: cited from earlier work
# Cryptosporidium parvum [2] = test: Host cell ATP assay (CellTiter-Glo) of C. parvum-infected Caco2 cells; assay type: cell-based; details: Caco-2, host cell ATP at 48 h post-infection, read-out: EC50 against C. parvum
# Experimental: (§1) The effect of Tartrolon D/E on Cryptosporidium proliferation was evaluated by measuring host cell ATP levels (CellTiter-Glo® Luminescent Cell Viability Assay, Promega). Caco2 cells, having been infected with 2×10^5 C. parvum oocysts for 7 hours, were treated with dilutions of tartrolon D/E or DMSO (control) and cellular ATP levels were measured at the 48-hour time point post-infection.
# Cryptosporidium parvum [3] = test: Morphology of C. parvum parasites after treatment (immunofluorescence); assay type: cell-based; details: 100 nM, 9 hours (FIG. 6B)
# From the text: Insets (upper right in each image) are enlargements of boxed regions (dashes). Red: Rabbit α gp15 detected with Alexafluor 594-conjugated goat anti-rabbit IgG secondary antibody; blue: DAPI; scale=20 μm; insets=5 μm.
# (§2) The morphology of treated parasites (FIG. 6B) was similar to that seen with T. gondii, in which the vacuole contained intact nuclei but no intact merozoites.
# P. falciparum strains = test: 3H hypoxanthine incorporation assay of P. falciparum strains in human red blood cells; assay type: cell-based, Plasmodium falciparum
# Experimental: The potency of the compounds of the invention against multi-drug resistant P. falciparum strains was tested. Parasites were cultured in 96-well plates in human red blood cells at 0.5% initial parasitemia for 72 hours in the presence of dilutions of tartrolon D/E (specifically, D2 as the starting material in FIG. 11A), purified tartrolon E (FIG. 11C), dihydroartemisinin (DHA, as a positive control in FIG. 11B), or DMSO (as a negative control). Parasites proliferation was then determined by ^3H hypoxanthine incorporation.
# Specifically, parasitized red blood cells (pRBCs) were grown in 0.5% Albumax I (Thermo Fisher Scientific). Assays were set up in 96-well plates at 0.5% initial parasitemia and 0.5% hematocrit. Parasites were exposed to various concentrations of Tartrolon D or E and dihydroartemisinin (DHA) for 48 hours and then pulsed with 0.5 microcuries of tritium-labeled hypoxanthine Moravek (MT-700) for another 24 hours. At the end of 72 hours, assay plates were processed through an Inotech cell harvester and collected on Inotech glass fiber filters. Filters were transferred to Omniplate-96 cassettes (Perkin Elmer) and dried overnight at room temperature. About […] of Microscint-O scintillation cocktail (Perkin Elmer) was added to each well. Each well was counted for 2 minutes on a Packard Topcount scintillation counter. The uptake of radiolabeled hypoxanthine by compound-treated pRBCs was compared relative to uptake by DMSO solvent-treated controls. […] The starting material used as the active reagent in FIG. 11C was tartrolon E, purified as follows: extract from the bacterial pellet of the Teredinibacter turnerae T7901 was purified by reversed phase HPLC using diode array detection. A C18 column (Phenomenex CHO-7878, 100×10 mm) was employed with an isocratic mobile phase (85% acetontrile in water, 3.5 mL/min) to yield tartrolon E (4.7 mg, retention time 8 min).
# T. gondii = test: MTS host cell viability readout of T. gondii-infected HFF cells; assay type: cell-based; details: Toxoplasma gondii, read-out: effective concentration at which 50% of the host cells survived (EC50)
# Experimental: (§3) Readouts of host cell viability were used to quantify the dose-response of tartrolon D/E against T. gondii. Human foreskin fibroblast (HFF) cells, after having been infected by T. gondii for 24 hours, were treated with dilutions of tartrolon D/E that have been purified as in Example 2, or DMSO (control) for 72 hours. Host cell viability was then measured by MTS assay (CellTiter 96® AQueous One Solution Cell Proliferation Assay, Promega). The effective concentration at which 50% of the host cells survived (EC50) was about 5 nM (FIG. 4A).
# Toxoplasma gondii = test: Immunofluorescence assay (anti-SAG1) of T. gondii-infected HFF cells; assay type: cell-based; details: T. gondii in HFF cells, FIG. 4B/4C
# Experimental: FIGS. 2B and 2C show results for experiments that were conducted as for FIG. 2A, except that 24 hours after addition of the fractions, the infected HFF cells were processed for immunofluorescence assays. Briefly, infected and treated HFF cells that had been grown on coverslips in 6-well plates were fixed with methanol and parasites were detected using antibody to the SAG1 T. gondii surface antigen that was then detected with a red-fluorescence tagged secondary antibody. Host nuclei were stained with blue fluorescent marker DAPI (4′,6-diamidino-2-phenylindole). Host nuclei were clearly visible (blue) in all cell populations in both FIGS. 2B and 2C. Consistent with the trypan blue results, extensive red fluorescence was visible in cells treated with the control (DMSO) in FIG. 2C, meaning these cells were highly infected with the parasites.
# Caco2 cell = Caco2 cell viability; assay type: cell-based; details: concentrations up to 500 nM
# Experimental: as §1, §2
# [4] = system: Bovine Turbinate (BT) cells (ATCC #CRL-1390); test: Toxicity for mammalian cells, CellTiter Glo cell viability assay; assay type: cell-based; details: 24 hours
# Experimental: Toxicity of the compounds of the invention for mammalian cells was determined. Bovine Turbinate (BT) cells (ATCC #CRL-1390) are a primary cell line (not a transformed cancer cell line) and were used to provide a preliminary evaluation of the toxicity of tartrolon D/E for mammalian cells. Briefly, BT cells were cultured in the presence of increasing starting concentrations of Tartrolon D/E for 24 hours. Cell proliferation was measured using CellTiter Glo Cell Viability Assay (Promega) and the data was analyzed with GraphPad Prism.
# Plasmodium berghei = test: Plasmodium berghei-luciferase infection in mice, IVIS imaging; assay type: in vivo; details: IVIS image FIG. 14B, 1 of the 4 control mice
# Experimental: Mice were infected with Plasmodium berghei expressing luciferase. 48 hours post infection mice were treated with tartrolon D/E (specifically, D2) initially solubilized in 2% methylcellulose and 0.5% Tween80 by intraperitoneal injection for 5 days, once per day. Control mice were treated with vehicle alone. Seven days after infection, mice were given luciferase substrate (150 mg/kg D-luciferin Potassium salt in PBS (Goldbio)) and imaged in an IVIS Lumina II to quantify level of infection.
# HFF cell = HFF cell viability by MTS assay; assay type: cell-based, human; details: at the concentrations tested
# Experimental: as §3
# At the concentrations tested, tartrolon D/E had no effect on HFF cell viability as measured by MTS assay, indicating likely safety for in vivo administration. […] The aberration in the parasite morphology, stark when compared to untreated cell infection shown in the left columns of FIGS. 4B and 4C, provides direct evidence of irreversible inhibition and killing of the target parasite by compounds of the invention.
# [5] = system: apicomplexan parasites tested; test: Summary of in vitro EC50 against the apicomplexan parasites tested; assay type: cell-based; details: general range
# From the text: For therapeutic purposes, the compounds of the invention may be formulated into a pharmaceutical composition, by mixing a therapeutically effective amount of the compound(s) of the invention with a pharmaceutically acceptable excipient, carrier, or diluent, and optionally in combination with one or more additional active agents, e.g., a second anti-parasitic agent. […] With an EC50 value as low as the picomolar to nanomolar level provides further confidence that the active ingredients, once administered in vivo, would likely achieve the expected anti-parasitic effects. According to an aspect of the present invention, tartrolon D and/or tartrolon E can be used as a therapeutic for treatment or prevention of human and animal diseases caused by various protozoan parasites.
Structure (SMILES),cytotoxic activity [1],EC50 (Cryptosporidium parvum [2]),morphology of treated parasites (Cryptosporidium parvum [3]),"EC50 (P. falciparum strains; Plasmodium falciparum, 3D7, Erythrocyte, parasite line 3D7)","EC50 (P. falciparum strains; Plasmodium falciparum, DD2, Erythrocyte, parasite line Dd2)","EC50 (P. falciparum strains; Plasmodium falciparum, Erythrocyte, parasite line 7G8)","EC50 (P. falciparum strains; Plasmodium falciparum, Erythrocyte, parasite line 2012 Indian Isolate (Goa))","EC50 (P. falciparum strains; Plasmodium falciparum, Erythrocyte, parasite line D6)","EC50 (P. falciparum strains; Plasmodium falciparum, Erythrocyte, parasite line V1S)","EC50 (P. falciparum strains; Plasmodium falciparum, HB3, Erythrocyte, parasite line HB3)","EC50 (P. falciparum strains; Plasmodium falciparum, NF54, Erythrocyte, parasite line NF54)","EC50 (P. falciparum strains; Plasmodium falciparum, TM90C2A, Erythrocyte, parasite line TM90C2A)",EC50 (P. falciparum strains; parasite line 3D7),EC50 (T. gondii),parasite morphology (Toxoplasma gondii),effect on Caco2 cell viability (Caco2 cell),toxic dose at which 50% of the cells were killed [4],treated mice with significant areas with no parasites (Plasmodium berghei),effect on HFF cell viability (HFF cell),EC50 [5]
"C[C@@H]1C(=O)C[C@@H](O)CC/C=C/C=C\CC[C@H](C)OC(=O)C(O)[C@]2(O)O[C@@H](CC[C@H]2C)[C@H](C)C(=O)C[C@@H](O)CC/C=C/C=C\CC[C@H](C)OC(=O)C(O)[C@]2(O)O[C@H]1CC[C@H]2C (some centres unmarked) [Tartrolon D, tartrolon D]",strong cytotoxic activity,~12 nM,most parasites did not progress past the single cell stage,0.11 nM,0.28 nM,0.18 nM,0.26 nM,0.14 nM,0.31 nM,0.13 nM,0.2 nM,0.16 nM,0.19 nM,–,–,–,–,–,–,–
C[C@@H]1C(=O)C[C@@H](O)CC/C=C/C=C\CC[C@H](C)OC(=O)C(O)[C@]2(O)O[C@@H](CC[C@H]2C)[C@H](C)C(=O)C[C@@H](O)CC/C=C/C=C\CC[C@H](C)OC(=O)C(O)[C@]2(O)O[C@H]1CC[C@H]2C (some centres unmarked) [Tartrolon D/E],–,–,–,–,–,–,–,–,–,–,–,–,–,~5 nM,aberrant morphology,no effect,1.14 µM,4 of the 5,no effect,0.1 to 16 nM
